Values quoted from earlier work as cited in PubChem BioAssay AID1259409 (Chemical Carcinogenesis Research Information System (CCRIS), 2018).

Tested on: rodent chemically induced tumor inhibition, incidence and multiplicity
Experiment: CCRIS tumor inhibitor studies

Q: For Oc1cc(O)c2c(c1)O[C@H](c1cc(O)c(O)c(O)c1)[C@H](O)C2, which “tumour outcome (control, treated, inhibition, significance)” value (Carcinogen: 4-METHYLNITROSAMINO-1-(3-PYRIDYL)-1-BUTANONE, 64091-91-4, Dose [Inhibitor]: 0, 560 PPM IN DRINKING WATER 2 WK PRIOR TO CARCINOGEN AND CONTINUING FOR 13 WK (STUDY DURATION: 29 WK), Route [Inhibitor]: ORAL, Species: MOUSE, Strain/Sex: A/J/FEMALE, Target Tissue: Type of Lesion: LUNG: ADENOMA, Dose [Carcinogen]: 11.65 MG/KG IN CORN OIL 3/WK FOR 10 WK, Promoter: NONE USED) is on record?
A: 100%, 100%, 0%, not significant

Q: What about the “tumour outcome (control, treated, inhibition, significance)” value (Carcinogen: N-ETHYL-N'-NITRO-N-NITROSOGUANIDINE, 4245-77-6, Dose [Inhibitor]: 0, 0.005% IN DRINKING WATER BEGINNING POST CARCINOGEN TREATMENT AND CONTINUING FOR DURATION OF STUDY (STUDY DURATION: 16, Route [Inhibitor]: ORAL, Species: MOUSE, Strain/Sex: C57BL/MALE, Target Tissue: Type of Lesion: DUODENUM: TUMOR, Dose [Carcinogen]: 100 MG/L IN DRINKING WATER FOR 4 WK, Promoter: NONE USED) of the same compound?
A: 20/36 (63%), 6/30 (20%), 68%, p<0.001

Q: And the “tumour outcome (control, treated, inhibition, significance)” value (Carcinogen: N-METHYL-N'-NITRO-N-NITROSOGUANIDINE, 70-25-7, Dose [Inhibitor]: 0, 0.005% IN DRINKING WATER BEGINNING POST CARCINOGEN TREATMENT AND CONTINUING FOR DURATION OF STUDY (STUDY DURATION: 44, Route [Inhibitor]: ORAL, Species: RAT, Strain/Sex: WISTAR/MALE, Target Tissue: Type of Lesion: GLANDULAR STOMACH: TUMOR, Dose [Carcinogen]: 100 MG/L IN DRINKING WATER FOR 28 WK, Promoter: NONE USED)?
A: 10/14 (71%), 6/10 (60%), 15%, not significant

Q: What about the “tumour outcome (control, treated, inhibition, significance)” value (Carcinogen: N-METHYL-N'-NITRO-N-NITROSOGUANIDINE, 70-25-7, Dose [Inhibitor]: 0, 0.05% IN DRINKING WATER BEGINNING POST CARCINOGEN TREATMENT AND CONTINUING FOR DURATION OF STUDY (STUDY DURATION: 44, Route [Inhibitor]: ORAL, Species: RAT, Strain/Sex: WISTAR/MALE, Target Tissue: Type of Lesion: GLANDULAR STOMACH: TUMOR, Dose [Carcinogen]: 80 MG/L IN DRINKING WATER FOR 28 WK, Promoter: NONE USED) of the same compound?
A: 21/34 (62%), 11/35 (31%), 50%, p<0.05

Q: And the “tumour outcome (control, treated, inhibition, significance)” value (Carcinogen: PEROXYNITRITE [19059-14-4], Dose [Inhibitor]: 0.0025% IN WATER FROM 1 WK BEFORE TO 1 WK AFTER INITIATION, Route [Inhibitor]: DRINKING WATER, Species: MOUSE, Strain/Sex: SENCAR/FEMALE, Target Tissue: Type of Lesion: SKIN: PAPILLOMA, Dose [Carcinogen]: 390 UMOL ONCE (STUDY DURATION: 20 WKS), Promoter: TETRADECANOYL PHORBOL ACETATE [16561-29-8])?
A: 100%; 10%, 90% (at wk 11)

Q: Which “tumour outcome (control, treated, inhibition, significance)” value (Carcinogen: BENZO[A]PYRENE, 50-32-8, Dose [Inhibitor]: 0.034 MMOL/G IN DIET FOR 5 WK BEGINNING 1 WK PRIOR TO CARCINOGEN DOSE (STUDY DURATION: 21 WK), Route [Inhibitor]: ORAL, Species: MOUSE, Strain/Sex: ICR/FEMALE, Target Tissue: Type of Lesion: FORESTOMACH: TUMOR, Dose [Carcinogen]: 1 MG IN 0.2 ML CORN OIL 2/WK FOR 4 WK, Promoter: NONE USED) does the source give for CC1CCC(=O)O1 (stereo not drawn) here?
A: (95%, 95%, 0%, not significant

Q: Which “tumour outcome (control, treated, inhibition, significance)” value (Carcinogen: AZOXYMETHANE, 25843-45-2, Dose [Inhibitor]: 0, 42 MG/KG BW IN 0.9% SALINE TWICE ON FIRST DAY THEN 0, 105 MG/KG 1/2 WK FOR DURATION OF STUDY (STUDY DURATION: 35 WK), Dose [Inhibitor]: 0, 42 MG/KG BW IN 0.9% SALINE TWICE ON FIRST DAY THEN 0, 105 MG/KG 1/2 WK FOR DURATION OF STUDY (STUDY DURATION: 35 WK), Route [Inhibitor]: INTRAPERITONEAL, Species: RAT, Strain/Sex: WISTAR/MALE, Target Tissue: Type of Lesion: COLON: TUMOR, Dose [Carcinogen]: 7.4 MG/KG BW IN 0.9% SALINE 1/WK FOR 10 WK, Promoter: NONE USED) does the source give for NCCc1cc(O)c(O)cc1O here?
A: 14/20 (70%), 4/17 (24%), 66%, p<0.02

Q: What about the “tumour outcome (control, treated, inhibition, significance)” value (Carcinogen: N-METHYL-N'-NITRO-N-NITROSOGUANIDINE, 70-25-7, Dose [Inhibitor]: 0, 42 MG/KG 2/24 HR BEGINNING POST CARCINOGEN TREATMENT THEN 1 WK LATER 105 MG/KG 1/2 WK (STUDY DURATION: 52 WK), Route [Inhibitor]: INTRAPERITONEAL, Species: RAT, Strain/Sex: WISTAR/MALE, Target Tissue: Type of Lesion: STOMACH: ADENOCARCINOMA, Dose [Carcinogen]: 75 UG/ML IN DRINKING WATER FOR 25 WK, Promoter: NONE USED) of the same compound?
A: 16/20 (80%), 9/20 (45%), 44%, p<0.05

Q: Which “tumour outcome (control, treated, inhibition, significance)” value (Carcinogen: N-NITROSOBIS(2-HYDROXYPROPYL)AMINE, 53609-64-6, Dose [Inhibitor]: 0, 0.02% IN DIET FOR 8 WK BEGINNING POST CARCINOGEN TREATMENT (STUDY DURATION: 20 WK), Route [Inhibitor]: ORAL, Species: RAT, Strain/Sex: WISTAR/MALE, Target Tissue: Type of Lesion: LUNG: ADENOCARCINOMA, Dose [Carcinogen]: 2,000 PPM IN DRINKING WATER FOR 12 WK, Promoter: NONE) does the source give for CC[C@H]1OC(=O)[C@H](C)[C@@H](O[C@H]2C[C@@](C)(OC)[C@@H](O)[C@H](C)O2)[C@H](C)[C@@H](O[C@@H]2O[C@H](C)C[C@H](N(C)C)[C@H]2O)[C@](C)(OC)C[C@@H](C)C(=O)[C@H](C)[C@@H](O)[C@]1(C)O here?
A: 60%, 38%, 37%, not calculated

Q: And the “tumour outcome (control, treated, inhibition, significance)” value (Carcinogen: N-NITROSOBIS(2-HYDROXYPROPYL)AMINE, 53609-64-6, Dose [Inhibitor]: 0, 0.02% IN DIET FOR 8 WK BEGINNING POST CARCINOGEN TREATMENT (STUDY DURATION: 20 WK), Route [Inhibitor]: ORAL, Species: RAT, Strain/Sex: WISTAR/MALE, Target Tissue: Type of Lesion: LUNG: ADENOMA, Dose [Carcinogen]: 2,000 PPM IN DRINKING WATER FOR 12 WK, Promoter: NONE)?
A: 70%, 50%, 29%, not calculated

Q: And the “tumour outcome (control, treated, inhibition, significance)” value (Carcinogen: N-NITROSOBIS(2-HYDROXYPROPYL)AMINE, 53609-64-6, Dose [Inhibitor]: 0, 0.02% IN DIET FOR 8 WK BEGINNING POST CARCINOGEN TREATMENT (STUDY DURATION: 20 WK), Route [Inhibitor]: ORAL, Species: RAT, Strain/Sex: WISTAR/MALE, Target Tissue: Type of Lesion: LUNG: SQUAMOUS CELL CARCINOMA, Dose [Carcinogen]: 2,000 PPM IN DRINKING WATER FOR 12 WK, Promoter: NONE)?
A: 20%, 13%, 35%, not calculated

Q: For CC(C)=CCC/C(C)=C/Cc1cc2ccc(=O)oc2cc1O, which “tumour outcome (control, treated, inhibition, significance)” value (Carcinogen: 7,12-DIMETHYLBENZ[A]ANTHRACENE, 57-97-6, Dose [Inhibitor]: 0, 400 NMOL ONCE APPLIED 5 MIN PRIOR TO CARCINOGEN DOSE (STUDY DURATION: 25 WK), Route [Inhibitor]: DERMAL, Species: MOUSE, Strain/Sex: SENCAR, Target Tissue: Type of Lesion: SKIN: PAPILLOMA, Dose [Carcinogen]: 10 NMOL ONCE, Promoter: 12-O-TETRADECANOYLPHORBOL-13-ACETATE, 16561-29-8) is on record?
A: 96%, 96%, 0%, not significant

Q: What about the “tumour outcome (control, treated, inhibition, significance)” value (Carcinogen: 7-12-DIMETHYLBENZ[A]ANTHRACENE, 57-97-6, Dose [Inhibitor]: 0, 1200 NMOL ONCE APPLIED 5 MIN PRIOR TO CARCINOGEN DOSE (STUDY DURATION: 25 WK), Route [Inhibitor]: DERMAL, Species: MOUSE, Strain/Sex: SENCAR, Target Tissue: Type of Lesion: SKIN: PAPILLOMA, Dose [Carcinogen]: 10 NMOL ONCE, Promoter: 12-O-TETRADECANOYLPHORBOL-13-ACETATE, 16561-29-8) of the same compound?
A: 93%, 96%, -3%, not significant

Q: And the “tumour outcome (control, treated, inhibition, significance)” value (Carcinogen: BENZO[A]PYRENE, 50-32-8, Dose [Inhibitor]: 0, 400 NMOL ONCE APPLIED 5 MIN PRIOR TO CARCINOGEN DOSE (STUDY DURATION: 25 WK), Route [Inhibitor]: DERMAL, Species: MOUSE, Strain/Sex: SENCAR, Target Tissue: Type of Lesion: SKIN: PAPILLOMA, Dose [Carcinogen]: 200 NMOL ONCE, Promoter: 12-O-TETRADECANOYLPHORBOL-13-ACETATE, 16561-29-8)?
A: 91%, 91%, 0%, not significant

Q: And the “tumour outcome (control, treated, inhibition, significance)” value (Carcinogen: BENZO[A]PYRENE, 50-32-8, Dose [Inhibitor]: 0, 1200 NMOL ONCE APPLIED 5 MIN PRIOR TO CARCINOGEN DOSE (STUDY DURATION: 25 WK), Route [Inhibitor]: DERMAL, Species: MOUSE, Strain/Sex: SENCAR, Target Tissue: Type of Lesion: SKIN: PAPILLOMA, Dose [Carcinogen]: 200 NMOL ONCE, Promoter: 12-O-TETRADECANOYLPHORBOL-13-ACETATE, 16561-29-8)?
A: 92%, 93%, -1%, not significant

Q: For c1ccc2c(c1)Nc1ccccc1[Se]2, which “tumour outcome (control, treated, inhibition, significance)” value (Carcinogen: BENZO[A]PYRENE, 50-32-8, Dose [Inhibitor]: 0, 3.8 UMOL/G DIET BEGINNING 1 WK PRIOR TO CARCINOGEN TREATMENT AND CONTINUING FOR 1 WK POST CARCINOGEN TREATMENT FOLLOW, Route [Inhibitor]: ORAL, Species: MOUSE, Strain/Sex: CD-1/FEMALE, Target Tissue: Type of Lesion: FORESTOMACH: PAPILLOMA, Dose [Carcinogen]: 1 MG IN 0.2 ML CORN OIL 2/WK FOR 4 WK, Promoter: NONE USED) is on record?
A: 85%, 95%, -12%, not significant

Q: Which results are given for CC1=C(/C=C/C(C)=C/C=C/C(C)=C/C(=O)NCCCCO)C(C)(C)CCC1?
A: tumour outcome (control, treated, inhibition, significance) (Carcinogen: N-BUTYL-N-(4-HYDROXYBUTYL)NITROSAMINE, 3817-11-6, Dose [Inhibitor]: 1.5 MMOL/KG DIET DAILY FOR 133 D STARTING ONE WK AFTER THE FINAL CARCINOGEN DOSE (STUDY DURATION: 190 D), Route [Inhibitor]: ORAL, Species: MOUSE, Strain/Sex: BDF/MALE, Target Tissue: Type of Lesion: URINARY BLADDER: TRANSITIONAL CELL CARCINOMA, Dose [Carcinogen]: 7.5 MG 1/WK FOR 8 WK, Promoter: NONE USED): 21/100 (21%), 21/100 (21%), 0%, not significant; tumour outcome (control, treated, inhibition, significance) (Carcinogen: N-BUTYL-N-(4-HYDROXYBUTYL)NITROSAMINE, 3817-11-6, Dose [Inhibitor]: 1.5 MMOL/KG IN DIET FOR 133 D STARTING 1 WK AFTER LAST CARCINOGEN DOSE (STUDY DURATION: 190 D), Route [Inhibitor]: ORAL, Species: MOUSE, Strain/Sex: DBF1/MALE, Target Tissue: Type of Lesion: URINARY BLADDER: TRANSITIONAL CELL CARCINOMA, Dose [Carcinogen]: 7.5 MG 1/WK FOR 8 WK, Promoter: NONE USED): 21/100 (21%), 21/100 (21%), 0%, not significant
